Test results as given in PubChem BioAssay (NCI).
Where “and” joins values, the source holds several entries; their conditions need not be identical. Identical values can stand only once.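 Assay format: 96-well plates, 48-hour exposure. Here, GI50 denotes the concentration required for 50% inhibition of growth. TGI is the concentration that stops growth completely.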

Key:
Assay in all cases: NCI tumour cell line growth inhibition, 48 h
SW-620 colon = test system: SW-620 colon
ACHN renal = test system: ACHN renal
HOP-62 NSCLC = test system: HOP-62 NSCLC
M14 melanoma = test system: M14 melanoma
SF-295 CNS = test system: SF-295 CNS
SK-MEL-5 melanoma = test system: SK-MEL-5 melanoma
OVCAR-3 ovarian = test system: OVCAR-3 ovarian
CAKI-1 renal = test system: CAKI-1 renal
HCC-2998 colon = test system: HCC-2998 colon
HS 578T breast = test system: HS 578T breast

| SMILES | GI50 (SW-620 colon) | TGI (SW-620 colon) | GI50 (ACHN renal) [µM] | TGI (ACHN renal) | GI50 (HOP-62 NSCLC) [µM] | TGI (HOP-62 NSCLC) | GI50 (M14 melanoma) | TGI (M14 melanoma) | GI50 (SF-295 CNS) [µM] | TGI (SF-295 CNS) | GI50 (SK-MEL-5 melanoma) | TGI (SK-MEL-5 melanoma) | GI50 (OVCAR-3 ovarian) | TGI (OVCAR-3 ovarian) | GI50 (CAKI-1 renal) | TGI (CAKI-1 renal) | GI50 (HCC-2998 colon) [µM] | TGI (HCC-2998 colon) | GI50 (HS 578T breast) | TGI (HS 578T breast) |
| --- | --- | --- | --- | --- | --- | --- | --- | --- | --- | --- | --- | --- | --- | --- | --- | --- | --- | --- | --- | --- |
| COC1CC(C)C(OC)c2cc(O)cc(c2O)NC(=O)/C(C)=C/C=C\C(C)C(OC(N)=O)/C(C)=C\C(C)C1OC (stereo unspecified) | 0.0544 µM and 0.0649 µM | 3.7 µM and 3.97 µM | 6.71 | 12.6 µM and 13.2 µM | 0.413 | 36.9 µM and 12.2 µM | 0.267 µM and 1.27 µM | 18.7 µM and 10.5 µM | 0.665 | 9.09 µM and 8.02 µM | 0.691 µM and 0.599 µM | 18.1 µM and 5.29 µM | 0.938 µM and 0.552 µM and 0.186 µM | 5.31 µM and 7.4 µM | 6.93 µM and 7.45 µM | 16.3 µM and 14.4 µM | 0.318 | 9.78 µM and 11.3 µM | 0.511 µM and 0.758 µM | 20.8 µM and 6.92 µM |
| COc1cc(OC)c(/C=C/C(=O)c2ccc(Nc3ncnc4ccccc34)cc2)c(OC)c1 | 0.403 µM | 2.64 µM | 1.83 | 17.7 µM | 0.966 | 2.32 µM | 0.575 µM | 2.5 µM | 0.353 | 1.92 µM | 0.426 µM | 1.98 µM | 0.365 µM | 1.43 µM | 1.31 µM | 15.2 µM | 1.94 | 14.2 µM | 0.725 µM | 5.66 µM |
| O=C(O)C(Br)C(Br)C(=O)O (stereo unspecified) | – | > 100 µM | – | > 100 µM | – | > 100 µM | – | > 100 µM | – | > 100 µM | – | > 100 µM | – | > 100 µM | – | > 100 µM | – | > 100 µM | – | > 100 µM |
| Nc1ncn(C2OC(COP(=O)(O)O)C(O)C2O)c(=O)n1 (stereo unspecified) | – | > 100 µM | – | > 100 µM | – | > 100 µM | – | > 100 µM | – | > 100 µM | – | > 100 µM | – | > 100 µM | – | > 100 µM | – | > 100 µM | – | > 100 µM |
| CCN(CC)CCC(=O)OC1C(C)=CC(C)C(=O)CC(C(C)CC2CCC(O)C(OC)C2)OC(=O)C2CCCCN2C(=O)C(=O)[C@@]2(O)OC(CCC2C)CC(OC)\C(C)=C/C=C/C=C/C(C)CC(C)C(=O)C1OC (stereo partly specified) | – | 25.3 µM | – | 22.2 µM | – | 21.1 µM | – | 22.6 µM | – | 18.5 µM | – | 17.2 µM | – | 23.5 µM | – | 21.5 µM | – | 21.8 µM | – | 13.7 µM |
| Cc1ccc(-c2c(C#N)[n+](=O)c3cc(F)c(F)cc3n2[O-])cc1 | 3.9 µM | 16.1 µM | 2.2 | 5.83 µM | 5.26 | 19.7 µM | 2.18 µM | 5.73 µM | 2.01 | 5.27 µM | 14.2 µM | 28.1 µM | 1.77 µM | 3.61 µM | 2.48 µM | 5.74 µM | 10.3 | 23.5 µM | 25.3 µM | > 100 µM |
| O=C1NC(O)c2ccccc2O1 (stereo unspecified) | – | > 100 µM | – | > 100 µM | – | > 100 µM | – | > 100 µM | – | > 100 µM | – | > 100 µM | – | > 100 µM | – | > 100 µM | – | > 100 µM | – | > 100 µM |
| C=C1C(=O)O[C@H]2[C@H]1CC/C(Cn1cc(Cc3c[nH]c4ccccc34)nn1)=C\CC[C@@]1(C)O[C@@H]21 | 1.74 µM | 3.56 µM | 1.47 | 2.8 µM | 3.86 | 14.9 µM | 1.31 µM | 3.07 µM | 4.71 | 17.2 µM | 1.89 µM | 3.61 µM | 1.73 µM | 3.15 µM | 1.3 µM | 2.64 µM | 2.18 | 3.92 µM | 3.88 µM | 18.3 µM |
| CC/C=C\C[C@H](O)C/C=C1/C(=O)C=C[C@@H]1C/C=C\CCCC(=O)OC(C)C | 0.572 µM | 2.32 µM | 1.88 | 3.79 µM | 2.45 | 6.01 µM | 0.79 µM | 3.17 µM | 2.91 | 8.34 µM | 1.17 µM | 2.51 µM | 0.483 µM | 1.71 µM | 2.51 µM | 10.3 µM | 1.87 | 3.38 µM | 5.21 µM | 41.2 µM |
| C=C(C)[C@@H]1C/C=C(/CO)CC[C@H]2O[C@]2(C)CC/C=C(\C)CC1 | 26.3 µM | 61.5 µM | 29.5 | > 100 µM | 15 | 34.4 µM | 15 µM | 29.9 µM | 11.6 | 24.5 µM | 12.7 µM | 25.5 µM | 22.2 µM | 42.9 µM | 17.1 µM | 34.8 µM | 19.8 | 40.4 µM | 18.2 µM | 38.7 µM |
| Oc1[nH]c(N=C2N=c3ccccc3=N2)c2ccccc12 | 10.6 µM | 32.4 µM | 12.3 | 29 µM | 10.1 | 22.9 µM | 12.2 µM | 38.8 µM | 3.64 | 26 µM | 8.57 µM | > 100 µM | 5.16 µM | 19.2 µM | 2.95 µM | 21.7 µM | 17.4 | > 100 µM | 10.7 µM | 39.8 µM |
| O=C1CSC(c2ccc(-c3nc4ccccc4[nH]3)cc2)=N1 | > 50 µM | > 50 µM | 24.7 | > 50 µM | > 50 | > 50 µM | 19.7 µM | > 50 µM | 29.5 | > 50 µM | 13 µM | > 50 µM | 33.8 µM | > 50 µM | > 50 µM | > 50 µM | 16.3 | > 50 µM | 25.1 µM | > 50 µM |
| COc1cc2c3c(n(CCCCNC(=O)OC(C)(C)C)c(=O)c2cc1OC)-c1cc2c(cc1C3=O)OCO2 | > 100 µM | > 100 µM | 20.1 | > 100 µM | 28.1 | > 100 µM | > 100 µM | > 100 µM | 16.1 | > 100 µM | > 100 µM | > 100 µM | 0.225 µM | 65.9 µM | 3.45 µM | 74.5 µM | > 100 | > 100 µM | 59 µM | > 100 µM |
| COc1cccc(Sc2ccc([N+](=O)[O-])c3no[n+]([O-])c23)c1 | 2.5 µM | 6.14 µM | 2.84 | 8.78 µM | 25.2 | 50 µM | 14.3 µM | 33.9 µM | 24.5 | 62.8 µM | 15.1 µM | 29.5 µM | 2.83 µM | 7.48 µM | 10.5 µM | 24.1 µM | 22.3 | 46.3 µM | 16.2 µM | 61.7 µM |
| CC(CN1CC(=O)NC(=O)C1)N1CC(=O)NC(=O)C1 (stereo unspecified) | – | > 750 µM | – | > 750 µM | 114 | 709 µM | – | > 750 µM | – | > 750 µM | – | > 750 µM | – | 701 µM | – | > 750 µM | – | > 750 µM | – | > 391 µM |
